Tested on: Caco-2 bidirectional permeability, LC-MS/MS efflux ratio
Test: Inhibitors of HPGD: Efflux Ratio Profiling
Conditions: hits give low values
Description: Human 15-Hydroxyprostaglandin dehydrogenase (HPGD) catalyzes the inactivation of prostaglandin E2, and plays a major role in cancer biology by antagonizing the oncogenic potential of cyclooxygenase type 2 (COX2). Assays are available, based on absorbance/fluorescence increase of NADH with the substrate 15-OH prostaglandin E2. This bioassays provides profiling data on Caco-2 cell permeability of leads compounds developed for the HPGD project. This in vitro model is often predictive of in vivo efflux of the compound by measuring the ratio of transport in and out the plasma membrane of the Caco2-cell line. NIH Chemical Genomics Center [NCGC] Structural Genomics Consortium [SGC]
1. Buffer Preparation: Prepare 1M HEPES: add 23.83g HEPES to 100ml of 0.85% NaCl Prepare HBSS+ buffer: add 12.8ml of 1M HEPES in 0.85% NaCl to 500ml HBSS buffer. 2. Take out the compounds from -80 degrees C, ultrasonicate or pre-warm for a few minutes to thaw the compounds. 3. Solution preparation Prepare donor buffer: For A-to-B direction: HBSS buffer with 0.3% DMSO and 5uM Lucifer Yellow (LY): add 150 µl DMSO and 50 µl LY (5mM) into 50ml HBSS buffer (pH 7.4). HBSS buffer with 0.1% DMSO and 5 µM Lucifer Yellow (LY): add 50 µl DMSO and 50 µl LY (5mM) into 50ml HBSS buffer (pH 7.4). […] The T0, LY and T90, LY plates are read by FlexStation 3 at excitation of 485 nm and emission of 535 nm to determine LY permeability. […]

efflux ratio	Compound
15	Cc1cccc(-n2cnc3cc(C(=O)N4CCCCC4)ccc32)c1
21	Cc1cc(-c2nnc3n2CCCCC3)c(C)n1-c1ccccc1

From PubChem BioAssay AID504587 (National Center for Advancing Translational Sciences (NCATS), 2011)
